Results taken from PMC12091851, “Replacing a Cereblon Ligand by a DDB1 and CUL4 Associated Factor 11 (DCAF11) Recruiter Converts a Selective Histone Deacetylase 6 PROTAC into a Pan‐Degrader” (Chemmedchem, 2025).

Experiments:
U-87MG cells = test: MTT cell viability assay; type: cell-based; conditions: Homo sapiens, 72 h, n.e.: no effect (≤25 % effect up to 50 μM)
Experimental: (§1) GraphPad Prism (GraphPad Software).
(§2) 2.8. MTT Cell Viability Assay
(§3) U-87MG cells (3 × 10^3 cells/well) or MDA-MB-231 cells (5 × 10^3 cells/well) were seeded in 96-well flat-bottomed plates. After 24 h the cells were incubated with the stock solutions of the respective compounds dissolved in DMSO (highest DMSO concentration, 0.5%) to reach the final concentrations as indicated. Controls received DPBS or DMSO. Following a 71 h incubation period 20 µl of a freshly prepared 5 mg/ml MTT (3-(4,5-dimethylthiazol-2-yl)-2,5-diphenyltetrazolium bromide, AppliChem GmbH, Darmstadt, Germany) solution were added into each well. The supernatant was discarded after 1 h incubation at 37 °C and the precipitated formazan was dissolved in 200 µl DMSO/well. Absorption was measured at 570 nm with background subtraction at 690 nm using a photometric microplate reader (Thermo Scientific Multiskan EX, Thermo Fisher Scientific). Data was further subtracted by the DMSO control and normalized on DPBS. The half-maximal effective concentration (EC50) was determined by plotting dose response curves and nonlinear regression with GraphPad Prism (GraphPad Software). […]

MDA-MB-231 cells = test: MTT cell viability assay; type: cell-based, human; conditions: 72 h, n.e.: no effect (≤25 % effect up to 50 μM); for EC50: Homo sapiens, MDA-MB-231
Experimental: as §1, §2, §3

HDAC1 = HDAC1 (Homo sapiens, UniProt Q13547); test: Simple Western immunoassay, HDAC1 levels in MM.1S cell lysates; type: cell-based; parameters: endogenous in cells; host or cells: MM.1S; conditions: MM.1S cells, 10 μM; for reduction of HDAC1 levels: 24 h
Experimental: Figure 3 Initial degradation screening of HDAC1 and 6 by DCAF11‐recruiting PROTACs by Simple Western™ immunoassay analysis of MM.1S cell lysates. MM.1S cells were treated with the indicated compound (10 μM) or vehicle (DMSO) for 24 h. […] Bottom: Representative images from a total of n=3 biological replicates, labeled with spacer type; w/o: without spacer.
2. Biological Experiments
No unexpected or unusually high safety hazards were encountered.
The human multiple myeloma cell line MM.1S (CRL-2974) was obtained from American Type Culture Collection (ATCC, Manassas, VA, USA). The semi-adherent cells were cultivated in RPMI 1640 medium (Catalog#21875-034, Gibco, ThermoFisher Scientific Inc., Waltham, MA, USA) supplemented with 10% FBS (PAN Biotech GmbH; Aidenbach, Germany), 100 IU/mL penicil lin, 0.1 mg/mL streptomycin (PAN Biotech GmbH) and 1 mM sodium pyruvate (ThermoFisher Scientific Inc.). […]
(PAN Biotech GmbH). All cells were cultured at 37 °C in a 5% CO2 atmosphere. Incubation times, as part of assay protocols, were performed under these conditions as well. The semi-adherent MM.1S were detached mechanically by using a cell scraper and the adhered […] were trypsinased by trypsin/EDTA (0.05%/0.02% in DPBS, PAN Biotech GmbH) whereas the U-87MG were detached by […]
2.2. Simple Western™ Immunoassay
For the cell lysates, MM.1S (0.5 × 10^6 cells/mL) or U-87MG (0.18 × 10^6 cells/mL) cells were seeded and incubated with the indicated concentration of compound or vehicle (DMSO) for the given time. The adherent cells were cultured for 24 h under cell culture conditions for attachment before treatment. Cell lysis was performed with Cell Extraction Buffer (10 mM Tris, pH 7.4, 100 mM NaCl, 1 mM EDTA, […]
SDS, 0.5% deoxycholate; Catalog# FNN0011, Thermo Fisher Scientific Inc., Waltham, MA, USA) with addition of Halt Protease Inhibitor Cocktail (100×) (Catalog# 78429, Life Technologies GmbH, Carlsbad, CA, USA) and phenylmethanesulfonyl fluoride (Catalog# 10837091001, Sigma-Aldrich, St.
Louis, MO, USA) according to manufacturer´s instructions. Protein content was determined by Pierce™ BCA Protein Assay Kit (Catalog# 23225, Thermo Fisher Scientific Inc.) according to manufacturer´s guidelines. Cell lysates were diluted to a final concentration of 1 mg/mL and denatured according to manufacturer’s guidelines. Anti-HDAC1 (Catalog# 5356S, Cell Signaling Technology, Denver, MA, USA), anti-HDAC6 (Catalog#7558S, Cell Signaling Technology) and anti-GAPDH (Catalog# 2118S, […]
Fluorescence Separation 8x25 Capillary Cartridges (Catalog# SM-FL004-1, Protein Simple, Bio-Techne, Minneapolis, MN, USA) were used for separation and the Anti-Mouse Detection Module (Catalog# DM-002, Protein Simple) was used for detection with addition of 20x Anti-Rabbit HRP […]
Conjugate (Catalog# 043-426, Protein Simple) according to manufacturer´s instructions. The assay was performed with the Jess Simple Western System (catalog# 004-650, Protein Simple), according to manufacturer´s settings. Evaluation and quantification was performed with the compass software (6.2.0, Protein Simple). GraphPad Prism (GraphPad Software, San Diego, CA, USA) was used for normalization, statistical analysis and bar graph creation. Significance testing was performed with a one-way analysis of variance (ANOVA). […]
of each mean compared to a reference mean value. […]
AMC (Catalog# 233691-67-3, BLD pharma) was prepared with and without IGEPAL CA-630 (0.5%, Catalog# J61055, Alfa Aesar). 10 µL of the substrate solution was added and incubated for 3 h under cell culture conditions. The reaction was stopped with 100 µL of stop solution (50 mM Tris-HCl, […]
Trypsin) and incubated for 1.5 h under cell culture conditions. The fluorescence signal was measured by a FLUOstar OPTIMA microplate reader (BMG labtech, Ortenburg, Germany) at excitation of λ = 355 nm and emission of λ = 460 nm. All Compounds were tested in two independent experiments in duplicates and IC50 was determined by nonlinear regression with GraphPad Prim.

MM.1S cells = test: CellTiter-Glo cell viability assay; type: cell-based, human; conditions: for EC50: Homo sapiens, MM1.S, 72 h, n.e.: no effect (≤25 % effect up to 50 μM), read-out: EC50 MM.1S; for antiproliferative activity reduced compared to vorinostat by a factor: MM.1S cells
Experimental: For this purpose, the dilution series were prepared in 200-fold concentration in DMSO and further diluted to 10-fold concentration in medium. The final DMSO concentration was 0.5%. The toxicity of compounds was determined after 72 h using the CellTiter-Glo 2.0 Cell Viability Assay (Promega, Madison, WI, USA, #G9242) according to the manufacturer´s protocol. Subsequently, the luminescence was measured using a Tecan Spark (Tecan Group AG, Maennedorf, Swiss) and the half maximal effective concentration (EC50) was determined by plotting dose response curves and nonlinear regression with GraphPad Prism (GraphPad Software, San Diego, CA, USA). […] Cellular HDAC Inhibition Assay […] with minor changes. […] The DMSO-stock solutions were used to perform a serial dilution in DMSO. […] 10 µL of the substrate solution was added and incubated for 3 h under cell culture conditions. […] S8

HDAC1, sequence (Q13547 whole entry): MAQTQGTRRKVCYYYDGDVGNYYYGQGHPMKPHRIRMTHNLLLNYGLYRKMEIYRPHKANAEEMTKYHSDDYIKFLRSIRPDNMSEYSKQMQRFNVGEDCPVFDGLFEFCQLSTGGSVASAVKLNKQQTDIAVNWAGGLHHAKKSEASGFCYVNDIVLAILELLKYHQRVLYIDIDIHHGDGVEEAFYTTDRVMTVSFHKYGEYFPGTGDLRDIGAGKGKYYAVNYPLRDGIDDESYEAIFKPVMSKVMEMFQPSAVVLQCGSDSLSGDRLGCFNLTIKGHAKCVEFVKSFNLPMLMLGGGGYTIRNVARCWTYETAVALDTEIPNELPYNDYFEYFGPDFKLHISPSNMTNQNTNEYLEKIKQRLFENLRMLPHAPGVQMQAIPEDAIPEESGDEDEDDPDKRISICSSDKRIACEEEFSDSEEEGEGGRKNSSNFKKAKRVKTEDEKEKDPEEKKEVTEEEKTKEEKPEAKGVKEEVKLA

| Structure (SMILES) | EC50 (U-87MG cells) [µM] | EC50 MDA-MB-231 (MDA-MB-231 cells) | EC50 MDA-MB-231 (MDA-MB-231 cells; listed as 1j‐nc) | effect on HDAC1 protein levels (HDAC1; 14 h) | EC50 (MM.1S cells) [µM] | EC50 (MDA-MB-231 cells) [µM] | reduction of HDAC1 levels (HDAC1) [%] | time dependent degradation of HDAC1 (HDAC1; after 6 h) | antiproliferative activity reduced compared to vorinostat by a factor (MM.1S cells) |
| --- | --- | --- | --- | --- | --- | --- | --- | --- | --- |
| O=CN(CCCCCCCCCCCC(=O)Nc1ccc(C(=O)NCCCCCCC(=O)NO)cc1)C(C(=O)NCc1ccccc1)c1ccc(Cl)c(Cl)c1 (stereo not shown) [Compound 1j-nc] | 43 ± 18 | n.e. | no activity | not able to affect the protein levels of HDAC1 and 6 | 8.6 ± 1.5 |  |  |  |  |
| O=C(CCCCCCNC(=O)c1ccc(NC(=O)CCCCCCCCCCCN(C(=O)CCl)C(C(=O)NCc2ccccc2)c2ccc(Cl)c(Cl)c2)cc1)NO (stereo not shown) [Compound 1j] | 30 ± 5 |  |  |  | 2.8 ± 0.1 | 28 ± 10 | 71 | significant degradation | 3 – 6 |
| O=C(CCCCCCNC(=O)c1ccc(N(C(=O)CCl)C(C(=O)NCc2ccccc2)c2ccc(Cl)c(Cl)c2)cc1)NO (stereo not shown) [Compound 2] | 12 ± 3 |  |  |  | 1.5 ± 0.1 | 8.8 ± 3.2 | 55 |  | 3 – 6 |
